The results in this text go back to patent US8367709B2, “Dipeptide analogs as coagulation factor inhibitors” (priority 2007, dated 2013).

pKi: −log10 of the molar value. Counter-ions that a name gives are not always drawn.

In the first experiment the target is T1, purified human Factor XIa (Homo sapiens, UniProt P03951).
T1 construct: purchased Haematologic Technologies
T1 sequence (P03951 19-387): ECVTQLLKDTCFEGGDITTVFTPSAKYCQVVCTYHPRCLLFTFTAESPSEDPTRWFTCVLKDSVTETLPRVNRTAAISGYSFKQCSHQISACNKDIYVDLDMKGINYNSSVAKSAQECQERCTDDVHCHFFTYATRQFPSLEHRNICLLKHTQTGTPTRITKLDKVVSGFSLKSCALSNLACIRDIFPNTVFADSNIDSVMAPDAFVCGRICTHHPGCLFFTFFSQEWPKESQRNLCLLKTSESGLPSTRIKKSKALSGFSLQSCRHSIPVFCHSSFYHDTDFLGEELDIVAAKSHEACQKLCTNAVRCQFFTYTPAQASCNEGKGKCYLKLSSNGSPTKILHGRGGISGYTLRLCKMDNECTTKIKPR
T1 sequence (P03951 388-625): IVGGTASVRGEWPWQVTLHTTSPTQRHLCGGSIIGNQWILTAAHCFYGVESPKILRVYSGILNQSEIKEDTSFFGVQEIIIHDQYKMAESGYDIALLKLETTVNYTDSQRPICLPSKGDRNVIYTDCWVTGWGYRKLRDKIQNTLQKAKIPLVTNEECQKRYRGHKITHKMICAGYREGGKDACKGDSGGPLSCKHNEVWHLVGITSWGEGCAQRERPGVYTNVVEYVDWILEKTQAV
Description: Factor XIa assay (chromogenic substrate S-2366 hydrolysis, Ki). The experiment is classed as biochemical.
Details: not given
As for the experimental part: The effectiveness of compounds of the present invention as inhibitors of the coagulation factors XIa, VIIa, IXa, Xa, XIIa, plasma kallikrein or thrombin, can be determined using a relevant purified serine protease, respectively, and an appropriate synthetic substrate. The rate of hydrolysis of the chromogenic or fluorogenic substrate by the relevant serine protease was measured both in the absence and presence of compounds of the present invention. […] A decrease in the rate of absorbance or fluorescence change in the presence of inhibitor is indicative of enzyme inhibition. Such methods are known to one skilled in the art. The results of this assay are expressed as the inhibitory constant, Ki.
Values of Ki were determined by allowing the protease to react with the substrate in the presence of the inhibitor. Reactions were allowed to go for periods of 20-180 minutes (depending on the protease) and the velocities (rate of absorbance or fluorescence change versus time) were measured. The following relationships were used to calculate Ki values:
vs/vo=A+((B−A)/1+((IC50/(I)^n))) and […]
As a reminder, the pKi is the negative decadic logarithm of the Ki, by convention in mol/L. For the compound `COC(=O)c1ccc(NC(=O)[C@H](Cc2cc(C)n(C)n2)NC(=O)/C=C/c2c(-n3cnnn3)ccc(Cl)c2F)nc1` [Example 216, (S,E)-methyl 6-(2-(3-(3-chloro-2-fluoro-6-(1H-tetrazol-1-yl)phenyl)acrylamido)-3-(1,5-dimethyl-1H-pyrazol-3-yl)propanamido)nicotinate, TFA salt], the pKi is 7.18. Still for that read-out and setting: in the case of `CS(=O)(=O)CC[C@H](NC(=O)/C=C/c1cc(Cl)ccc1-n1cnnn1)C(=O)Nc1ccc(C(=O)O)cc1` [Example 231, (S,E)-4-(2-(3-(5-chloro-2-(1H-tetrazol-1-yl)phenyl)acrylamido)-4-(methylsulfonyl)butanamido)benzoic acid] it was 7.35; in that of `O=C(/C=C/c1cc(Cl)ccc1-n1cnnn1)NC(Cc1cnc2ccccc2n1)C(=O)Nc1ccc(C(=O)O)cc1` (stereo not drawn) [Example 251, (E)-4-(2-(3-(5-chloro-2-(1H-tetrazol-1-yl)phenyl)acrylamido)-3-(quinoxalin-2-yl)propanamido)benzoic acid], 7.79. The same measure, in the same setting: in the case of `O=C(/C=C/c1cc(Cl)ccc1-n1cnnn1)N[C@@H](CC(=O)NCc1cnccn1)C(=O)Nc1ccc(C(=O)O)cc1` [Example 252, (S,E)-4-(2-(3-(5-chloro-2-(1H-tetrazol-1-yl)phenyl)acrylamido)-4-oxo-4-(pyrazin-2-ylmethylamino)butanamido)benzoic acid] it was 7.79.

For `N/C(=N/[N+](=O)[O-])NCCC[C@H](NC(=O)/C=C/c1cc(Cl)ccc1-n1cnnn1)C(=O)Nc1ccc(C(=O)O)cc1` [Example 253, 4-((S)-2-((E)-3-(5-chloro-2-(1H-tetrazol-1-yl)phenyl)acrylamido)-5-((Z)-2-nitroguanidino)pentanamido)benzoic acid], the pKi is 7.71. The same measure, in the same setting: in the case of `COC[C@H](NC(=O)/C=C/c1cc(Cl)ccc1-n1cnnn1)C(=O)Nc1ccc(C(=O)O)cc1` [Example 254, (S,E)-4-(2-(3-(5-chloro-2-(1H-tetrazol-1-yl)phenyl)acrylamido)-3-methoxypropanamido)benzoic acid] it was 5.44. The same measure, in the same setting: with `O=C(/C=C/c1cc(Cl)ccc1-n1cnnn1)N[C@H](C(=O)Nc1ccc(C(=O)O)cc1)[C@@H]1CCCNC1` [Example 262, 4-((S)-2-((E)-3-(5-chloro-2-(1H-tetrazol-1-yl)phenyl)acrylamido)-2-((R)-piperidin-3-yl)acetamido)benzoic acid] the figure was 5.63; with `CC(C)(C)SC[C@H](NC(=O)/C=C/c1cc(Cl)ccc1-n1cnnn1)C(=O)Nc1ccc(C(=O)O)cc1` [Example 282, (R,E)-4-(3-(tert-butylthio)-2-(3-(5-chloro-2-(1H-tetrazol-1-yl)phenyl)acrylamido)propanamido)benzoic acid], 7.49. The same measure, in the same setting: in the case of `O=C(/C=C/c1cc(Cl)ccc1-n1cnnn1)N[C@@H](CC(=O)NCCN1CCOCC1)C(=O)Nc1ccc(C(=O)O)cc1` [Example 286, (S,E)-4-(2-(3-(5-chloro-2-(1H-tetrazol-1-yl)phenyl)acrylamido)-4-(2-morpholinoethylamino)-4-oxobutanamido)benzoic acid, Trifluoroacetic acid salt] it was 6.32. Compound `O=C(N[C@@H](Cc1ccccc1)C(=O)NCCc1cc(Cl)ccc1-n1cnnn1)c1cn2cccnc2n1` [Example 295] had a pKi of 5.03. Still for that read-out and setting: with `O=C(/C=C/c1cc(Cl)ccc1-n1cnnn1)N[C@@H](CC1CCN(C(=O)c2ccccc2)C1)C(=O)Nc1ccc(C(=O)O)cc1` (stereo partly drawn) [Example 307, 4-((2S)-3-(1-benzoylpyrrolidin-3-yl)-2-((E)-3-(5-chloro-2-(1H-tetrazol-1-yl)phenyl)acrylamido)propanamido)benzoic acid] the figure was 7.91.

The experiment is the same for the next values; noted with them: purified human Factor XIa 75-200 pM, substrate S-2366, 50 mM HEPES pH 7.4; read-out: Factor XIa Ki.
For `O=C(/C=C/c1cc(Cl)ccc1-n1cnnn1)N[C@@H](Cc1c[nH]c2ccccc12)C(=O)Nc1ccc(C(=O)O)cc1` [Example 238, (S,E)-4-(2-(3-(5-chloro-2-(1H-tetrazol-1-yl)phenyl)acrylamido)-3-(1H-indol-3-yl)propanamido)benzoic acid, TFA salt], the pKi was 8.33. The same measure, in the same setting: with `O=C(/C=C/c1cc(Cl)ccc1-n1cnnn1)N[C@@H](Cc1cccs1)C(=O)Nc1ccc(C(=O)O)cc1` [Example 248, (S,E)-4-(2-(3-(5-chloro-2-(1H-tetrazol-1-yl)phenyl)acrylamido)-3-(thiophen-2-yl)propanamido)benzoic acid] the figure was 8.62; with `O=C(/C=C/c1cc(Cl)ccc1-n1cnnn1)N[C@@H](Cc1cccnc1)C(=O)Nc1ccc(C(=O)O)cc1` [Example 249, (S,E)-4-(2-(3-(5-chloro-2-(1H-tetrazol-1-yl)phenyl)acrylamido)-3-(pyridin-3-yl)propanamido)benzoic acid], 8.22. On the same count and under the same terms, with “(4-{(S)-2-[(E)-3-(5-chloro-2-tetrazol-1-yl-phenyl)-acryloylamino]-3-phenyl-propionylamino}-cyclohexyl)-carbamic acid methyl ester [Example 11]” the figure was 5.35.
